# Read-outs that look alike come from different tables or passages of the source.
# How the values were obtained:
# [1] = target: T1, human recombinant geranylgeranyl diphosphate synthase (hGGPPS) (Homo sapiens, UniProt O95749); test: Human recombinant GGPPS inhibition (radiometric assay); format: biochemical; details: Table 1, experimental; for Ki: read-out: GGPPS pKi (converted)
# T1 construct: made in house
# T1 sequence (O95749 1-300): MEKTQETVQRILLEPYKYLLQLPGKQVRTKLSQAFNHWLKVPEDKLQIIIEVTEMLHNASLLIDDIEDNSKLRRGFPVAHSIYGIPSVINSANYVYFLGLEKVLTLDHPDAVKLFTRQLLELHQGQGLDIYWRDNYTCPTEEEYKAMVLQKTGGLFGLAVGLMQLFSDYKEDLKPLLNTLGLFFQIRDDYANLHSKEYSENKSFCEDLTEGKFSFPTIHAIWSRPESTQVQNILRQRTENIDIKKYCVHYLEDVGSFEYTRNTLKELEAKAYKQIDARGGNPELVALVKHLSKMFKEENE
# Procedure: (§1) To test our polypharmaceutical hypothesis, we expressed three enzymes: human FPPS, GGPPS and DPPS, and tested each for their inhibition by a series of bisphosphonates.
# Human recombinant GGPPS inhibition. The purification of human recombinant geranylgeranyl diphosphate synthase (hGGPPS) followed the protocol reported previously^2. GGPPS inhibition by bisphosphonates was determined using the radiometric assay reported previously^2 with slight modification. […] IPP and incubated at 37° C. for 20 min. The reaction was terminated by the addition of 75 μL of HCl/MeOH. Following a second 20 min incubation at 37° C. to effectively hydrolyze the allylic pyrophosphates, the reaction mixtures were neutralized by the addition of 75 μL of 6 N NaOH and extracted with 500 μL of hexane. 200 μL of the organic phase was transferred to a scintillation vial for counting. The IC50 values were obtained by fitting the data to the dose-response curve in Origin 6.1 (OriginLab Corp., Northampton, Mass., www.OriginLab.com).
# Vγ2Vδ2 T cells = test: γδ T cell activation (TNF-α release and proliferation); format: cell-based, human; details: for EC50: Homo sapiens, T-cell, read-out: γδ T Cell Avg pED50 (converted); for EC50 / γδ T Cell Avg pED50 (M): Table 2, -log10(value, M)
# Procedure: γδ T Cell Assays. Vγ2Vδ2 T cell TNF-α release and proliferation were performed basically as described previously^1. Briefly, to measure bioactivity for Vγ2Vδ2 T cells, the CD4^+ JN.24, CD4^+ HF.2, CD8αα^+ 12G12, or the CD4^−8^− HD.108 Vγ2Vδ2 T cell clones were stimulated with phosphoantigens in the presence of CP.EBV (an EBV transformed B cell line) for CD4^+ clones or Va-2 (a transformed fibroblast) for CD8αα^+ and CD4^−8^− clones. CP.EBV and Va-2 were fixed with 0.05% glutaraldehyde (EM grade, Sigma, Mo.) for use as APCs. […] Curve fitting minima for each experiment (e.g. TNF-α release from JN.24 cells) were determined using the Global Fitting technique, as implemented in Prism 4.0. Curve fitting maxima were optimized for each individual compound without the use of any constraints.
# [2] = tested on: NCI-H460 (lung large cell); test: NCI-H460 cell growth inhibition (MTT); format: cell-based, human; details: Table 1, experimental; for IC50: Homo sapiens, NCI-H460, read-out: NCI-H460 pIC50 (converted)
# Text: (§2) Cell Growth Inhibition Assays. […] A broth microdilution method was used to determine IC50 values for growth inhibition by each bisphosphonate. […] NBPs were typically initially dissolved in H2O (0.01 M) while NNBPs were typically dissolved in DMSO (0.01 M).
# (§3) GraphPad PRISM® version 4.0 software for windows (GraphPad Software Inc., San Diego, Calif., www.graphpad.com) was used to fit the data to a rectangular hyperbolic function: I=(ImaxC)/(IC50+C); […]
# [3] = tested on: MCF-7 (breast adenocarcinoma); test: MCF-7 cell growth inhibition (MTT), incl. FOH/GGOH rescue; format: cell-based, human; details: for IC50: Homo sapiens, MCF7
# Text: as §2
# GraphPad PRISM® version 4.0 software for windows (GraphPad Software Inc., San Diego, Calif., www.graphpad.com) was used to fit the data to a rectangular hyperbolic function: I=(ImaxC)/(IC50+C);
# For the “rescue” experiments, stock solutions of FOH or GGOH were prepared (in ethanol) and the requisite amounts added to the incubation media to produce a fixed 20 μM concentration.
# human DPPS = target: T2, human DPPS (Homo sapiens, UniProt Q5T2R2); test: human DPPS enzyme inhibition; format: biochemical; details: Table 1, experimental; for Ki: read-out: DPPS_pKi (converted)
# T2 construct: made in house
# T2 sequence (Q5T2R2 1-415): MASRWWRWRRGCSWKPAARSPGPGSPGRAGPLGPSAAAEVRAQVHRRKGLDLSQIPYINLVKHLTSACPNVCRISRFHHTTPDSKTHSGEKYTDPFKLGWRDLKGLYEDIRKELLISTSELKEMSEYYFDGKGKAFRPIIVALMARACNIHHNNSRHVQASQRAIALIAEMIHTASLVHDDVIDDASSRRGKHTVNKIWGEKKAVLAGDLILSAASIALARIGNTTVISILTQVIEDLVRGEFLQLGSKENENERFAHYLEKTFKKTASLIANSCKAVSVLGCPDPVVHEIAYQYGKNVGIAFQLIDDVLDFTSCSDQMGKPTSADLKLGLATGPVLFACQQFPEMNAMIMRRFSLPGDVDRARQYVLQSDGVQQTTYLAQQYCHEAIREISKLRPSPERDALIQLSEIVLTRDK
# T2 sequence (Q86YH6 1-399 partner): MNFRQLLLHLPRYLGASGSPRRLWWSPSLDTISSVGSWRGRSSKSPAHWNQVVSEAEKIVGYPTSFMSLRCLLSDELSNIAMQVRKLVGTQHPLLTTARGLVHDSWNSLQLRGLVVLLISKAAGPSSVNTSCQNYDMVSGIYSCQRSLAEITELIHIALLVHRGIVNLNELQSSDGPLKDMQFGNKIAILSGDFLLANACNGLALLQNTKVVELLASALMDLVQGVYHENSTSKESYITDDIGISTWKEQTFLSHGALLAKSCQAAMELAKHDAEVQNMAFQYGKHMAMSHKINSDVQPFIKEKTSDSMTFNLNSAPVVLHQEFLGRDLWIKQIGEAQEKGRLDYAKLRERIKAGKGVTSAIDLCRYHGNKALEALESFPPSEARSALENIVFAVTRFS
# Text: as §1
# [4] = tested on: SF-268 (central nervous system glioblastoma); test: SF-268 cell growth inhibition (MTT); format: cell-based, human; details: Table 1, experimental; for IC50: Homo sapiens, SF-268, read-out: SF-268 pIC50 (converted)
# Text: as §2, §3
# T. brucei FPPS = T. brucei FPPS inhibition; format: biochemical, Trypanosoma brucei; details: Table 9
# human FPPS = target: T3, human FPPS (Homo sapiens, UniProt P14324); test: human FPPS enzyme inhibition; format: biochemical; details: for IC50: Table 9, read-out: H. sapiens FPPS IC50; for Ki / FPPS pKi (M): Table 1, experimental; for Ki: read-out: FPPS pKi (converted)
# T3 construct: made in house
# T3 sequence (P14324 1-419): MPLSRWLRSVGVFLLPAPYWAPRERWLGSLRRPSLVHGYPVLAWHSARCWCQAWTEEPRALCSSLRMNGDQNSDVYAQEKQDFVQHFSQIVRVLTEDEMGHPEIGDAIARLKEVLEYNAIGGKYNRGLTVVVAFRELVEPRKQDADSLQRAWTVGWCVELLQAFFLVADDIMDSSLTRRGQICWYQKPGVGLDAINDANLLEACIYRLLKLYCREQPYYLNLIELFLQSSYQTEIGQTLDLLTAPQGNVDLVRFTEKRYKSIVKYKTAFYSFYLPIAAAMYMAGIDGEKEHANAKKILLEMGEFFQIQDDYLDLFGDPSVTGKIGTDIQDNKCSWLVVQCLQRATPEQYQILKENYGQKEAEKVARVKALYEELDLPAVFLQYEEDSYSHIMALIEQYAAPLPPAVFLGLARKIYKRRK
# Text: as §1
# MDA-MB-231 cells = test: Matrigel invasion assay; format: cell-based, human
# Text: Tumor cell invasiveness and in vivo results. […] .
# [5] = Table 1, experimental, read-out: MCF-7 pIC50 (converted)
# [6] = Table 2, -log10(value, M), read-out: MCF-7 Cell pIC50 (converted)
SMILES,EC50 (Vγ2Vδ2 T cells) [µM],IC50 [2] [µM],"IC50 [3, 5] [µM]","IC50 [3, 6] [µM]",Ki (human DPPS) [µM],IC50 [4] [µM],γδ T Cell Avg pED50 (M) (Vγ2Vδ2 T cells),IC50 (T. brucei FPPS) [µM],IC50 (human FPPS) [µM],"MCF-7 Cell pIC50 (M) ([3]; Table 2, -log10(value, M))",further results
CCCCCCCCc1ccc[n+](CC(P(=O)([O-])O)P(=O)(O)O)c1 (centres unmarked) [BPH-637],12.6,2,0.251,0.219,0.501,1.26,–,–,–,–,Ki [1]: 0.0398 µM
C[P+](C)(C)CC(O)(P(=O)([O-])O)P(=O)(O)O (centres unmarked) [BPH-536],–,–,–,–,–,–,3.72,26.1,12.1,3.24,–
"C[S+](C)CC(O)(P(=O)(O)O)P(=O)(O)O [BPH-527, (2-Hydroxy-2,2-bis-phosphono-ethyl)-dimethyl-sulfonium]",–,–,–,–,–,–,3.87,0.78,1.03,3.36,–
CCCCCCCOc1ccc[n+](CC(P(=O)([O-])O)P(=O)(O)O)c1 (centres unmarked) [BPH-722],27.5,0.501,2.51,0.468,0.00631,1,–,–,–,–,Ki [1]: 0.0631 µM
CCCCC[S+](C)CC(P(=O)([O-])O)P(=O)(O)O (centres unmarked) [BPH-684],126,158,251,129,0.1,200,–,–,–,–,Ki [1]: 0.251 µM; Ki (human FPPS): 0.01 µM
O=P([O-])(O)C(C[n+]1cccc(-c2ccccc2)c1)P(=O)(O)O (centres unmarked) [BPH-472],–,–,–,–,–,–,4.07,–,–,4.46,"GGPPS pKi (M) [1]: 6.6 M; NCI-H460 pIC50 (M) [2]: 4.3 M; FPPS pKi (M) (human FPPS): 8.6 M; MCF-7 pIC50 (M) ([3]; Table 1, experimental): 4.4 M; DPPS pKi (human DPPS): 7.1; SF-268 pIC50 (M) [4]: 4.3 M"
C[As+](C)(C)CC(O)(P(=O)([O-])O)P(=O)(O)O (centres unmarked) [BPH-560],–,–,–,–,–,–,3.37,275,1.13,2.71,–
N=C(N)NCC(O)(P(=O)(O)O)P(=O)(O)O [BPH-678],–,–,–,–,–,–,4.22,25.6,1.25,5.37,"NCI-H460 pIC50 (M) [2]: 4.7 M; FPPS pKi (M) (human FPPS): 7.9 M; MCF-7 pIC50 (M) ([3]; Table 1, experimental): 4.7 M; DPPS pKi (human DPPS): 7.4; SF-268 pIC50 (M) [4]: 4.6 M"
CCCCCCCCCCc1ccc[n+](CC(P(=O)([O-])O)P(=O)(O)O)c1 (centres unmarked) [BPH-638],1.7,0.158,0.158,0.17,0.501,0.2,–,–,–,–,Ki (human FPPS): 0.0158 µM
C[S+](C)CCC(O)(P(=O)([O-])O)P(=O)(O)O (centres unmarked) [BPH-540],–,–,–,–,–,–,3.59,11.3,9,2.68,–
O=P([O-])(O)C(O)(C[n+]1cccc(-c2c[nH]cn2)c1)P(=O)(O)O (centres unmarked) [BPH-679],–,–,–,–,–,–,3.34,–,–,4.65,"GGPPS pKi (M) [1]: 5.0 M; NCI-H460 pIC50 (M) [2]: 4.3 M; FPPS pKi (M) (human FPPS): 8.2 M; MCF-7 pIC50 (M) ([3]; Table 1, experimental): 4.4 M; DPPS pKi (human DPPS): 6; SF-268 pIC50 (M) [4]: 4.5 M"
CCCCCCCCCCCCOc1ccc[n+](CC(P(=O)(O)O)P(=O)(O)O)c1 [BPH-716],–,–,–,–,–,–,–,–,–,–,"γδ T cell activation EC50, times more active than Phosphostim (Vγ2Vδ2 T cells; versus Phosphostim (bromohydrin of IPP)): ~2 ×; γδ T cell activation, times more active than the most potent conventional bisphosphonates (Vγ2Vδ2 T cells; versus most potent conventional bisphosphonates): ~100 ×; IC50 (MDA-MB-231 cells): ~0.03 µM; fold more inhibitory than zoledronate, Matrigel invasion (MDA-MB-231 cells; versus zoledronate): about 1000 fold"

# Source: US8012949B2, “Bisphosphonate compounds and methods with enhanced potency for multiple targets including FPPS, GGPPS, and DPPS” (The Board of Trustees of the University of Illinois, priority 2004, dated 2011)
